The experiment has as its target T1, TRPV3 in CAL-29 cells (Homo sapiens, UniProt Q8NET8).
T1 construct: host or cells: CAL-29
T1 sequence (Q8NET8 1-790): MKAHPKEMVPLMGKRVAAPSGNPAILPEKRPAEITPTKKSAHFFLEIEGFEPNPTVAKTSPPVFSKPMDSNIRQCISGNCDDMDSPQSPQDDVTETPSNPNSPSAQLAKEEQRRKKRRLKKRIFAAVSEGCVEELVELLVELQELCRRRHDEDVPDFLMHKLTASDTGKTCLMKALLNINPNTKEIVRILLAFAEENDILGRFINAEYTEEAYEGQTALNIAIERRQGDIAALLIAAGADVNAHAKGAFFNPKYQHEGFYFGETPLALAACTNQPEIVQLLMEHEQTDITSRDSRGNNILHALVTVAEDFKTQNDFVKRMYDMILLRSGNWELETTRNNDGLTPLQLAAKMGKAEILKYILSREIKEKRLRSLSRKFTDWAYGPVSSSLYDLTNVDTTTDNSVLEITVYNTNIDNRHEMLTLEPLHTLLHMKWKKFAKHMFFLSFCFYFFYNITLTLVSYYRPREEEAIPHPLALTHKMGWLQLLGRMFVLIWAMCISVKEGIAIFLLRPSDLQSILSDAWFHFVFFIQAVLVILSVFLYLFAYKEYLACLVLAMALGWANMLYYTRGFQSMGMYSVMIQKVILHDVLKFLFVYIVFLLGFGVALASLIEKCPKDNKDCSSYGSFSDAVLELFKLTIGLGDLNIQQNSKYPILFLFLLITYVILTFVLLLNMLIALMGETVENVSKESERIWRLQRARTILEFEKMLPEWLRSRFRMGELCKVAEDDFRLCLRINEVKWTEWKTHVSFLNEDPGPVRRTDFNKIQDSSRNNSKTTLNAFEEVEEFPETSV
Kind of experiment: fura-2 Ca2+ assay in CAL-29 bladder cancer cells. The experiment is classed as cell-based. The settings on record: 50 μM AV3-1. How it is done: All fluorometric Ca^2+ assays were performed in HBS buffer at room temperature. The compounds of the Enamine Diversity Set were diluted in a buffer composed of 150 mM NaCl and 20 mM HEPES and added to the cells at a final concentration of 25 μM (0.5% DMSO). For the primary compound screening and the generation of concentration-response analyses, a robotic liquid handling station (Freedom Evo 150; Tecan) with a built-in custom-made fluorescence plate imager was used. HEKTRPV3 and bladder cancer cell lines were harvested and loaded with 4 μM fluo-4/AM (Invitrogen; Fisher Scientific) in cell culture medium for 30 minutes at 37 °C. […] Fluorescence was excited using a 470-nm light-emitting diode, and emitted light was imaged through a 515-nm–long pass filter with a cooled Zyla 5.5 camera (Andor). Fluorescence was recorded and processed under the control of the μ-Manager 2.0 gamma software (https://micro-manager.org.[28]). After recording baseline fluorescence, compounds were dispensed into the wells via the liquid handling device. […] For further analysis, fluorescence signals were calculated for each well, corrected for background intensities and normalized to the initial signals. […] Fluorescence signals were excited with a fiber-coupled monochromator device (Polychrome V; Till Photonics) at 340, 358, and 380 nm and calibrated as described before.[29] […]

In the case of `COC(=O)C12CN(Cc3ccccc3)CC1(C(=O)OC)CN(Cc1ccccc1)C2` (stereo not shown) [AV3-1], the “[Ca2+]i response in CAL-29 cells” value was “robust increases in [Ca^2+]i”.

The record behind these values is PMC12881674, “Activation of TRPV3 channels in bladder cancer cells stimulates ATP release” (Molecular Pharmacology, 2025).
